Data on 3 compounds can be found in US7939689B2, “Short-acting sedative hypnotic agents for anesthesia and sedation” (Theravance, Inc., priority 2002, dated 2011).

The subject of assay [1] is rats. As to the kind of experiment: Test A: administration by infusion (rats), recovery after termination of infusion. The class given is in vivo, rat (Sprague-Dawley). The method, then: (§1) Test compounds, e.g., representative compounds of the invention as well as the comparison compound, propanidid, were formulated in (1) 10% cremophor EL/90% D5W (5% dextrose in distilled water) (2) 10% Liposyn® III (Intravenous Fat Emulsion, containing (per 100 mL) 10 g soybean oil, 1.2 g egg phosphatides and […]), available from Abbott Laboratories, North Chicago, Ill.; and (3) injections (10) or (11) (as described in Example 16) with Miglyol® 810 (caprylic/capric glyceride). Typically, formulation (1) above was used for bolus dosing and formulations (2) or (3) for infusion dosing. Compounds of the invention and propanidid were synthesized as described in Examples 1-15 below. Propofol formulated in soybean oil, sold as Diprivan® injectable emulsion was obtained from AstraZeneca (Wilmington, Del.).
Administration by Infusion (Rats)
Rats (adult Sprague-Dawley) were placed in a perspex restrainer and anesthesia induced by bolus injection via the tail vein (0.15-1 mL/kg over approximately 3 seconds at a dose, estimated from the earlier bolus experiments, to produce anesthesia of approximately 2 minutes duration). Immediately after bolus administration, an infusion (with a duration of typically 20, 180 or 300 minutes), via the tail vein, was commenced (0.075-0.5 mL/kg/min at a half of the bolus dose/min). In some experiments, the initial infusion rate was maintained throughout, while in others, the rate was modified as necessary to maintain a consistent depth of anesthesia (as defined by moderate paw withdrawal in response to noxious pinch). Following completion of the infusion, duration of anesthesia (i.e. duration of loss of righting reflex) and behavioral recovery (i.e. duration of ataxia, sedation or lethargy following return of the righting reflex) was recorded.
Administration by infusion (rats): Recovery times following termination of administration by infusion in rats were determined for compound 1 and for the comparison compounds propofol and propanidid. The duration of the loss of righting reflex (in minutes) following termination of infusion is given as a function of duration of infusion in Table 2 below.

Assay [2] deals with guinea pigs. As to the kind of experiment: Test A: bolus administration (guinea pigs), loss of righting reflex. Type of assay: in vivo, guinea pig. The following applies: bolus via ear vein, calculated from dose response. The method, then:
as §1
Bolus Administration (Guinea Pigs)
Adult male guinea pigs were dosed by bolus administration (0.1-0.25 mL volume) via an ear vein. Duration of loss of righting reflex was measured as described above for rats.
Bolus administration (guinea pigs): The potency of compound 1 was also tested in guinea pigs by the analogous procedure. The dose of compound 1 required to produce 2 minutes of loss of righting reflex in guinea pigs was calculated to be 8 mg/kg, as compared with a dose of 13 mg/kg for propanidid.

The mark [3] stands for this setting: 20 minute Infusion via tail vein.

With `CC(C)c1cccc(C(C)C)c1O` [Propofol, 2,6-diisopropylphenol], the “Duration of Loss of Righting Reflex Following Termination of Infusion” value (“Duration of Loss … of Infusion” for short) in assay [1] (setting [3]) amounted to 30.0 ± 2.9 min; in assay [1] (3 hour Infusion via tail vein) it was 47.8 ± 5.3 min; in assay [1] (5 hour Infusion via tail vein), 59.0 ± 1.4 min.
`CCCOC(=O)Cc1ccc(OCC(=O)N(CC)CC)c(OCC)c1` [Compound 1, [4-[(N,N-Diethylcarbamoyl)methoxy]-3-ethoxyphenyl]acetic acid propyl ester]: the figures for the “Duration of Loss … of Infusion” value in assay [1] (setting [3]), in assay [1] (3 hour Infusion via tail vein) and in assay [1] (5 hour Infusion via tail vein) were 1.4 ± 0.1 min, 1.7 ± 0.1 min and 2.6 ± 1.0 min, respectively. In addition, the “dose required to produce 2 minutes of loss of righting reflex” value in assay [2] is on record as 8 mg/kg.
As to `CCCOC(=O)Cc1ccc(OCC(=O)N(CC)CC)c(OC)c1` [Propanidid, [4-[(N,N-diethylcarbamoyl)methoxy]-3-methoxyphenyl]acetic acid propyl ester], the “Duration of Loss … of Infusion” value in assay [1] (setting [3]) was 1.6 ± 0.2 min; in assay [1] (3 hour Infusion via tail vein), 1.4 ± 0.1 min. Also, the “dose required to produce 2 minutes of loss of righting reflex” value in assay [2] is given as 13 mg/kg.
